Assay results reported in BigSolDB 2.1.

CO/N=C(\C(=O)N[C@@H]1C(=O)N2C(C(=O)O)=C(CSc3nnnn3C)CS[C@H]12)c1csc(N)n1.CO/N=C(\C(=O)N[C@@H]1C(=O)N2C(C(=O)O)=C(CSc3nnnn3C)CS[C@H]12)c1csc(N)n1.Cl
solubility (mole fraction) (in ethanol, 283.15 K): 2.61e-05
solubility (mole fraction) (in ethanol, 288.15 K): 2.83e-05
solubility (mole fraction) (in ethanol, 293.15 K): 3.03e-05
solubility (mole fraction) (in ethanol, 298.15 K): 3.17e-05
solubility (mole fraction) (in ethanol, 303.15 K): 3.8e-05
solubility (mole fraction) (in ethanol, 308.15 K): 4.01e-05
solubility (mole fraction) (in ethanol, 313.15 K): 4.68e-05
solubility (mole fraction) (in methanol, 283.15 K): 0.000186
solubility (mole fraction) (in methanol, 288.15 K): 0.000196
solubility (mole fraction) (in methanol, 293.15 K): 0.000213
solubility (mole fraction) (in methanol, 298.15 K): 0.000235
solubility (mole fraction) (in methanol, 303.15 K): 0.000253
solubility (mole fraction) (in methanol, 308.15 K): 0.000275
solubility (mole fraction) (in methanol, 313.15 K): 0.000303
solubility (mole fraction) (in water, 283.15 K): 3.26e-05
solubility (mole fraction) (in water, 288.15 K): 3.59e-05
solubility (mole fraction) (in water, 293.15 K): 4.23e-05
solubility (mole fraction) (in water, 298.15 K): 4.76e-05
solubility (mole fraction) (in water, 303.15 K): 5.29e-05
solubility (mole fraction) (in water, 308.15 K): 5.88e-05
solubility (mole fraction) (in water, 313.15 K): 6.65e-05
